# In patent US10279023B2, “Mucin-associated surface protein as a vaccine against chagas disease” (BOARD OF REGENTS, THE UNIVERSITY OF TEXAS SYSTEM, priority 2013, dated 2019):
# Key:
# C3H/HeNsd female mice = assay: Evaluation of the humoral immune response (serum antibody titers by ELISA after immunization); type: in vivo; conditions: immunized mice, without the aid of any additional adjuvants
# Experimental: (§1) C3H/HeNsd female mice (6-8 weeks old) were separated in five groups (4 mice/group). The immunizations were performed via intraperitoneal (i.p.) injection. One control group was immunized with phosphate buffer saline (PBS, placebo). Two control groups for the adjuvants were given 0.9% aluminum hydroxide (AIOH) and KLH at 10 μg/mouse. Two experimental groups were administered 20 μg/mouse of MASPsyn alone and combined with 0.9% aluminum hydroxide, respectively. A total of 3 immunizations every 10-15 days were administered.
# Ten days after the last immunization blood was collected by tail bleeding and serum was separated from blood by centrifugation at 2,000 rpm for 10 min. The serum antibody titers were determined by an ELISA. Human Chagasic and normal serum were also tested for antibody titers against MASPsyn.
# [1] = tested on: IL-4, IL-10, IL-12, IL-17A, and IFN-gamma; assay: Evaluation of cytokines (Mouse Inflammatory Cytokines Multi-analyte ELISArray) in immunized, challenged mice; type: in vivo; conditions: without the aid of any additional adjuvants
# Experimental: as §1
# Four weeks post-infection, the blood was collected by tail-bleeding and a pool of serum from each experimental group was obtained as described above. Cytokines were measured using Mouse Inflammatory Cytokines Multi-analyte ELISArray Kit. FIG. 2 illustrates cytokine profiles of immunized mice following parasite challenge. Anti-inflammatory (IL-4 and IL-10) and proinflammatory (IFN-γ, IL-12, and IL-17) cytokines were assayed in triplicate by ELISA four weeks after the last immunization and approximately two weeks after the challenge. Each bar represents the mean value±SEM (n=4 animals per group) for each treatment.
# [2] = tested on: T. cruzi Y strain trypomastigotes; assay: Challenge - parasitemia and survival of immunized mice; type: in vivo, Trypanosoma cruzi; conditions: without the aid of any additional adjuvants
# Experimental: as §1
# Ten days after last immunization mice were inoculated via intraperitoneal injection with 1×10^5 trypomastigote Y strain, the parasitemia and survival were monitored. The parastemia were evaluated every day for the first 12 days then every third day for a total of 21 days. FIG. 1 illustrates the resulting parasitemia and survival for each of the control and experimental groups.
sequence,measurement,setting,value
DAENPGGEVFNDNKKGLSRV (listed as Trypanosoma cruzi) [MASPsyn],antibody production,C3H/HeNsd female mice,able to stimulate
same,"cytokine (e.g., IL-4, IL-10, IL-12, IL-17A, and IFN-gamma) production",[1],able to stimulate
same,survivability of immunized-infected mice,[2],increase survivability
